Where a SMILES comes first, the peptide text is derived from it. [ ]: non-standard residue; d: D form. Aib = CC(C)(N)C(=O)O
Tested on: Mouse monocyte/macrophage cell line, RAW 264.7
Test: Cholesterol efflux assay (3H-cholesterol, macrophage cell line)
Type: cell-based
Settings: RAW 264.7, 4 hrs incubation, 0.1% human serum albumin; for 4 h Cholesterol Efflux Emax: ABCA1-mediated efflux; for EC50: read-out: 4 h Cholesterol Efflux EC50, ABCA1-mediated efflux (CPT-cAMP induced minus non-induced)

Row | SMILES | 4 h Cholesterol Efflux Emax [%] | EC50 [nM]
1 | CC[C@H](C)[C@H](NC(=O)[C@H](Cc1ccccc1)NC(=O)[C@H](CCC(=O)O)NC(=O)[C@H](CCCCN)NC(=O)[C@@H](NC(=O)[C@H](CCCCN)NC(=O)[C@H](CCC(=O)O)NC(=O)CNC(=O)[C@H](CCC(=O)O)NC(=O)[C@H](CC(C)C)NC(=O)[C@H](Cc1ccc(O)cc1)NC(=O)[C@H](CO)NC(=O)[C@H](CO)NC(=O)[C@@H](NC(=O)[C@H](CC(=O)O)NC(=O)[C@H](CO)NC(=O)[C@@H](NC(=O)[C@H](Cc1ccccc1)NC(=O)[C@@H](NC(=O)CNC(=O)[C@H](CCC(=O)O)NC(=O)C(C)(C)NC(=O)[C@@H](N)Cc1c[nH]cn1)[C@@H](C)O)[C@@H](C)O)C(C)C)C(C)C)C(=O)N[C@@H](CCC(=O)O)C(=O)N[C@@H](Cc1c[nH]cn1)C(=O)N[C@@H](CC(C)C)C(=O)N[C@H](C(=O)N[C@@H](CCC(=O)O)C(=O)N[C@@H](CCCCN)C(=O)N[C@@H](Cc1ccccc1)C(=O)N[C@@H](CCCCN)C(=O)N[C@@H](CCC(=O)O)C(=O)N[C@@H](Cc1ccccc1)C(=O)N[C@@H](Cc1ccccc1)C(N)=O)C(C)C [Compound 96, [Aib8,Glu23,Lys24,Val25,Glu30,His31,Glu34,Lys35,Phe36,Lys37]-GLP-1-(7-37)-peptidyl-Glu-Phe-Phe amide] (H-H[Aib]EGTFTSDVSSYLEGEKVKEFIEHLVEKFKEFF-NH2) | 123 | 
2 | CC[C@H](C)[C@H](NC(=O)[C@H](Cc1ccccc1)NC(=O)[C@H](CCC(=O)O)NC(=O)[C@H](CCCCN)NC(=O)[C@@H](NC(=O)[C@H](C)NC(=O)[C@H](CCC(=O)O)NC(=O)CNC(=O)[C@H](CCC(=O)O)NC(=O)[C@H](CC(C)C)NC(=O)[C@H](Cc1ccc(O)cc1)NC(=O)[C@H](CO)NC(=O)[C@H](CO)NC(=O)[C@@H](NC(=O)[C@H](CC(=O)O)NC(=O)[C@H](CO)NC(=O)[C@@H](NC(=O)[C@H](Cc1ccccc1)NC(=O)[C@@H](NC(=O)CNC(=O)[C@H](CCC(=O)O)NC(=O)C(C)(C)NC(=O)[C@@H](N)Cc1c[nH]cn1)[C@@H](C)O)[C@@H](C)O)C(C)C)C(C)C)C(=O)N[C@@H](C)C(=O)N[C@@H](Cc1c[nH]c2ccccc12)C(=O)N[C@@H](CC(C)C)C(=O)N[C@H](C(=O)N[C@@H](CCC(=O)O)C(=O)N[C@@H](CCCCN)C(=O)NC(C)(C)C(=O)N[C@@H](CCCCN)C(=O)N[C@@H](CCC(=O)O)C(=O)N[C@@H](Cc1ccccc1)C(=O)N[C@@H](CC(C)C)C(=O)N[C@@H](CCC(=O)O)C(=O)N[C@@H](CCCCN)C(=O)N[C@H](C(=O)N[C@@H](CCCCN)C(=O)N[C@@H](CCC(=O)O)C(=O)N[C@@H](Cc1ccccc1)C(=O)O)C(C)C)C(C)C [Compound 97] | 125 | 410
3 | CC[C@H](C)[C@H](NC(=O)[C@H](Cc1ccccc1)NC(=O)[C@H](CCC(=O)O)NC(=O)[C@H](CCCCN)NC(=O)[C@@H](NC(=O)[C@H](C)NC(=O)[C@H](CCC(=O)O)NC(=O)CNC(=O)[C@H](CCC(=O)O)NC(=O)[C@H](CC(C)C)NC(=O)[C@H](Cc1ccc(O)cc1)NC(=O)[C@H](CO)NC(=O)[C@H](CO)NC(=O)[C@@H](NC(=O)[C@H](CC(=O)O)NC(=O)[C@H](CO)NC(=O)[C@@H](NC(=O)[C@H](Cc1ccccc1)NC(=O)[C@@H](NC(=O)CNC(=O)[C@H](CCC(=O)O)NC(=O)C(C)(C)NC(=O)[C@@H](N)Cc1c[nH]cn1)[C@@H](C)O)[C@@H](C)O)C(C)C)C(C)C)C(=O)N[C@@H](C)C(=O)N[C@@H](Cc1c[nH]c2ccccc12)C(=O)N[C@@H](CC(C)C)C(=O)N[C@H](C(=O)N[C@@H](CCC(=O)O)C(=O)N[C@@H](CCCCN)C(=O)NC(C)(C)C(=O)N[C@@H](CCCCN)C(=O)N[C@@H](CCC(=O)O)C(=O)N[C@@H](Cc1ccccc1)C(=O)N[C@@H](CC(C)C)C(=O)N[C@@H](CCC(=O)O)C(=O)N[C@@H](CCCCN)C(=O)N[C@H](C(=O)O)C(C)C)C(C)C [Compound 98, [Aib8,Glu23,Val25,Glu34,Lys35,Aib36,Lys37]-GLP-1-(7-37)-peptidyl-Glu-Phe-Leu-Glu-Lys-Val] | 132 | 430
4 | CC[C@H](C)[C@H](NC(=O)[C@H](Cc1ccccc1)NC(=O)[C@H](CCC(=O)O)NC(=O)[C@H](CCCCN)NC(=O)[C@@H](NC(=O)[C@H](C)NC(=O)[C@H](CCC(=O)O)NC(=O)CNC(=O)[C@H](CCC(=O)O)NC(=O)[C@H](CC(C)C)NC(=O)[C@H](Cc1ccc(O)cc1)NC(=O)[C@H](CO)NC(=O)[C@H](CO)NC(=O)[C@@H](NC(=O)[C@H](CC(=O)O)NC(=O)[C@H](CO)NC(=O)[C@@H](NC(=O)[C@H](Cc1ccccc1)NC(=O)[C@@H](NC(=O)CNC(=O)[C@H](CCC(=O)O)NC(=O)C(C)(C)NC(=O)[C@@H](N)Cc1c[nH]cn1)[C@@H](C)O)[C@@H](C)O)C(C)C)C(C)C)C(=O)N[C@@H](C)C(=O)N[C@@H](Cc1c[nH]c2ccccc12)C(=O)N[C@@H](CC(C)C)C(=O)N[C@H](C(=O)N[C@@H](CCC(=O)O)C(=O)N[C@@H](CCCCN)C(=O)NC(C)(C)C(=O)N[C@@H](CCCCN)C(=O)N[C@@H](CCC(=O)O)C(=O)N[C@@H](Cc1ccccc1)C(=O)N[C@@H](CC(C)C)C(=O)N[C@@H](CCC(=O)O)C(=O)O)C(C)C [Compound 100, [Aib8,Glu23,Val25,Glu34,Lys35,Aib36,Lys37]-GLP-1-(7-37)-peptidyl-Glu-Phe-Leu-Glu] | 104 | 690
5 | CC[C@H](C)[C@H](NC(=O)[C@H](Cc1ccccc1)NC(=O)[C@H](CCC(=O)O)NC(=O)[C@H](CCCCN)NC(=O)[C@@H](NC(=O)[C@H](C)NC(=O)[C@H](CCC(=O)O)NC(=O)[C@@H]1CCCN1C(=O)[C@H](CCC(=O)O)NC(=O)[C@H](CC(C)C)NC(=O)[C@H](Cc1ccc(O)cc1)NC(=O)[C@H](CO)NC(=O)[C@H](CO)NC(=O)[C@@H](NC(=O)[C@H](CC(=O)O)NC(=O)[C@H](CO)NC(=O)[C@@H](NC(=O)[C@H](Cc1ccccc1)NC(=O)[C@@H](NC(=O)CNC(=O)[C@H](CCC(=O)O)NC(=O)C(C)(C)NC(=O)[C@@H](N)Cc1c[nH]cn1)[C@@H](C)O)[C@@H](C)O)C(C)C)C(C)C)C(=O)N[C@@H](C)C(=O)N[C@@H](Cc1c[nH]c2ccccc12)C(=O)N[C@@H](CC(C)C)C(=O)N[C@H](C(=O)N[C@@H](CCC(=O)O)C(=O)N[C@@H](CCCCN)C(=O)NC(C)(C)C(=O)N[C@@H](CCCCN)C(=O)N[C@@H](CCC(=O)O)C(=O)N[C@@H](Cc1ccccc1)C(=O)N[C@@H](CC(C)C)C(N)=O)C(C)C [Compound 101, [Aib8,Pro22,Glu23,Val25,Glu34,Lys35,Aib36,Lys37]-GLP-1-(7-37)-peptidyl-Glu-Phe-Leu amide] (H-H[Aib]EGTFTSDVSSYLEPEAVKEFIAWLVEK[Aib]KEFL-NH2; N-terminus assumed) | 92 | 280
6 | CC[C@H](C)[C@H](NC(=O)[C@H](Cc1ccccc1)NC(=O)[C@H](CCC(N)=O)NC(=O)[C@H](CCCCN)NC(=O)[C@@H](NC(=O)[C@H](C)NC(=O)[C@H](CCC(N)=O)NC(=O)CNC(=O)[C@H](CCC(=O)O)NC(=O)[C@H](CC(C)C)NC(=O)[C@H](Cc1ccc(O)cc1)NC(=O)[C@H](CO)NC(=O)[C@H](CO)NC(=O)[C@@H](NC(=O)[C@H](CC(=O)O)NC(=O)[C@H](CO)NC(=O)[C@@H](NC(=O)[C@H](Cc1ccccc1)NC(=O)[C@@H](NC(=O)CNC(=O)[C@H](CCC(=O)O)NC(=O)C(C)(C)NC(=O)[C@@H](N)Cc1c[nH]cn1)[C@@H](C)O)[C@@H](C)O)C(C)C)C(C)C)C(=O)N[C@@H](C)C(=O)N[C@@H](Cc1c[nH]c2ccccc12)C(=O)N[C@@H](CC(C)C)C(=O)N[C@H](C(=O)N[C@@H](CCC(N)=O)C(=O)N[C@@H](CCCCN)C(=O)NC(C)(C)C(=O)N[C@@H](CCCCN)C(=O)N[C@@H](CCC(N)=O)C(=O)N[C@@H](Cc1ccccc1)C(=O)N[C@@H](CC(C)C)C(N)=O)C(C)C [Compound 102, [Aib8,Val25,Gln27,Gln34,Lys35,Aib36,Lys37]-GLP-1-(7-37)-peptidyl-Gln-Phe-Leu amide] (H-H[Aib]EGTFTSDVSSYLEGQAVKQFIAWLVQK[Aib]KQFL-NH2) | 100 | 
7 | CC[C@H](C)[C@H](NC(=O)[C@H](Cc1ccccc1)NC(=O)[C@H](CCC(=O)O)NC(=O)[C@H](CCCCN)NC(=O)[C@@H](NC(=O)[C@H](C)NC(=O)[C@H](CCC(=O)O)NC(=O)[C@H](CCC(=O)O)NC(=O)[C@H](CCC(=O)O)NC(=O)[C@H](CC(C)C)NC(=O)[C@H](Cc1ccc(O)cc1)NC(=O)[C@H](CO)NC(=O)[C@H](CO)NC(=O)[C@@H](NC(=O)[C@H](CC(=O)O)NC(=O)[C@H](CO)NC(=O)[C@@H](NC(=O)[C@H](Cc1ccccc1)NC(=O)[C@@H](NC(=O)CNC(=O)[C@H](CCC(=O)O)NC(=O)C(C)(C)NC(=O)[C@@H](N)Cc1c[nH]cn1)[C@@H](C)O)[C@@H](C)O)C(C)C)C(C)C)C(=O)N[C@@H](C)C(=O)N[C@@H](Cc1c[nH]c2ccccc12)C(=O)N[C@@H](CC(C)C)C(=O)N[C@H](C(=O)N[C@@H](CCC(=O)O)C(=O)N[C@@H](CCCCN)C(=O)N[C@H](C(=O)N[C@@H](CCCCN)C(=O)N[C@@H](CCC(=O)O)C(=O)N[C@@H](CC(C)C)C(=O)N[C@@H](CC(C)C)C(N)=O)C(C)C)C(C)C [Compound 109, [Aib8,Glu22,Glu23,Val25,Glu34,Lys35,Val36,Lys37]-GLP-1-(7-37)-peptidyl-Glu-Leu-Leu amide] (H-H[Aib]EGTFTSDVSSYLEEEAVKEFIAWLVEKVKELL-NH2) | 99 | 
8 | CC[C@H](C)[C@H](NC(=O)[C@H](Cc1ccccc1)NC(=O)[C@H](CCC(=O)O)NC(=O)[C@H](CCCCN)NC(=O)[C@@H](NC(=O)[C@H](C)NC(=O)[C@H](CCC(=O)O)NC(=O)CNC(=O)[C@H](CCC(=O)O)NC(=O)[C@H](CC(C)C)NC(=O)[C@H](Cc1ccc(O)cc1)NC(=O)[C@H](CO)NC(=O)[C@H](CO)NC(=O)[C@@H](NC(=O)[C@H](CC(=O)O)NC(=O)[C@H](CO)NC(=O)[C@@H](NC(=O)[C@H](Cc1ccccc1)NC(=O)[C@@H](NC(=O)CNC(=O)[C@H](CCC(=O)O)NC(=O)C(C)(C)NC(=O)[C@@H](N)Cc1c[nH]cn1)[C@@H](C)O)[C@@H](C)O)C(C)C)C(C)C)C(=O)N[C@@H](C)C(=O)N[C@@H](Cc1c[nH]c2ccccc12)C(=O)N[C@@H](CC(C)C)C(=O)N[C@H](C(=O)N[C@@H](CCC(=O)O)C(=O)N[C@@H](CCCCN)C(=O)N[C@H](C(=O)N[C@@H](CCCCN)C(=O)N[C@@H](CC(=O)O)C(=O)N[C@@H](Cc1ccccc1)C(=O)N[C@@H](CC(C)C)C(N)=O)C(C)C)C(C)C [Compound 114, [Aib8,Glu23,Val25,Glu34,Lys35,Val36,Lys37]-GLP-1-(7-37)-peptidyl-Asp-Phe-Leu amide] (H-H[Aib]EGTFTSDVSSYLEGEAVKEFIAWLVEKVKDFL-NH2) | 103 | 

From US20150344540A1, “NOVEL GLP-1 RECEPTOR AGONISTS WITH CHOLESTEROL EFFLUX ACTIVITY” (NOVO NORDISK A/S, priority 2012, published 2015)
